In patent US10071089B2 (Euro-Celtique S.A., priority 2013, dated 2018):

Key:
[1] = system: bacteria of different phyla in the small intestine; experiment: Analysis of the contents of the small intestine (bacterial phyla)
Protocol: (§1) The small intestine, caecum, and colon were cut longitudinally. The contents of each were individually collected into separate containers with a small spatula or similar instrument, taking care to cause as little injury to the tissue as possible. The weight of the contents collected from each portion was recorded. The weights of the small intestine, caecum, and colon following removal of the contents were also recorded. Collected luminal contents samples were then frozen in liquid nitrogen. Luminal contents samples were then placed on dry ice before transfer to a −80° C. freezer.
The contents of the small intestine of the different groups were obtained as described above.

[2] = Body weights over 7 days of dosing; format: in vivo, mice; settings: 10 mg/kg oxycodone or 10 mg/kg oxycodone/5 mg/kg naloxone, oral gavage
Protocol: (§2) Animals were administered the dose by oral gavage three times a day (˜4 hours apart) for 7 days and once on the 8th day. Prior to the first dose administration of the day, the dose formulation vials designated for that day were removed from the refrigerator, briefly mixed, and allowed to come to room temperature, where the vials remained throughout the day. After the third dose on day 7, all animals fasted through euthanasia. The dose volume was based on the animal's body weight on Day 1. Dose volume was recorded.
Individual body weights were recorded prior to administration of the first dose on Day 1. The body weight determinations prior to Day 1 dose administration was used to determine the dose administered for all subsequent doses. Subsequent body weights were recorded daily after the 2nd dose of the day on Days 2 through 7.

[3] = system: bacteria of different phyla in the colon; experiment: Analysis of the colon contents (bacterial phyla); settings: phylum levels, FIG. 9; G1 untreated, G3 vehicle, G6, G7
Protocol: as §1

[4] = system: bacteria in the mesenteric lymph nodes; experiment: Colony forming units in mesenteric lymph nodes (bacterial translocation); format: in vivo, mice; settings: blood and BHI agar; aerobic, anaerobic, CO2; G6 oxycodone, G7 oxycodone/naloxone
Protocol: Following euthanasia, the abdomen was opened. The mesenteric root was presented and the mesenteric net unfolded. The mesenteric lymph nodes (MLNs) were removed and surrounding fat was removed. The MLNs were then weighed into sterilized tubes. Following weighing, the MLNs were frozen in liquid nitrogen. Following freezing, the MLNs were placed on dry ice prior to storage in a −70° C. freezer […].
MLNs were obtained as indicated above and the amount of bacteria in the MLNs was analyzed by determining colony forming units (CFUs) per g MLN in different media and under different conditions as indicated in FIG. 7. Contaminated samples were not taken into account (contaminated samples in the different groups: 1 in G1, 1 in G3, 2 in G6 and 3 in G7). The statistical analysis was performed using one way ANCOVA.

[5] = system: male C57BL/6 RAG1-/- knockout mice; experiment: Charcoal test of intestinal motility (GI transit); format: in vivo; settings: charcoal meal; oral gavage three times a day for 7 days and once on 8th day; Oxy 10 mg/kg, Oxy/Nal 10/5.0 mg/kg
Protocol: Male mice of the strain C57BL/6 RAG −/− (Taconic Model 4175-M, Taconic Laboratories) with an approximal weight at arrival of 20±7 g at an approximal age of 5 to 10 weeks were used in the present study.
The formulations were prepared on Day 0 and used for Day 1 to Day 8 dosing. Sterile water was used as vehicle. Each of the two dose formulations was transferred into eight individual sterile vials through sterilization filters, one designated for each day of dosing. The dose formulations were stored refrigerated and protected from light.
as §2, with “recorded. […]” for “recorded.”
Thirty minutes after charcoal delivery, animals were euthanized by an overdose of CO2. […] Its full length and the length of charcoal meal traveled were measured in centimeters. Intestinal transit was expressed as the percentage of intestine length containing the meal, i.e. 100×(pylorus to meal front/pylorus to caecum length). […]

[6] = small intestine, n=7 for G6, n=4 for G7

COc1ccc2c3c1O[C@H]1C(=O)CC[C@@]4(O)[C@@H](C2)N(C)CC[C@]314 [oxycodone]
bacterioides in small intestine, G6-group compared to G7-group ([1]; phylum levels, FIG. 8): clear decrease
proteobacteria in small intestine, G6-group compared to G7-group ([1]; phylum levels, FIG. 8): clear increase
mice with completely (dramatically) altered small intestine microbiome composition [1, 6]: 2/7
mice with pathogenic populations such as proteobacteria in small intestine [1, 6]: 5/7
average percentage body weight loss [2]: 4.17%
proteobacteria in colon compared to the remaining groups [3]: increase
CFUs in MLNs (bacterial translocation into mesenteric lymph nodes) [4]: Increased CFUs
reduction of GI transit compared to vehicle [5]: 67%
